From patent US20240166690A1, “MULTI-TARGET CY[…] FOR OPIOID/NEUROPEPTIDE FF RECEPTORS, AND PREPARATION THEREFOR AND APPLICATION THEREOF” (SHANGHAI TIANCI LIFE SCIENCE DEVELOPMENT CO., LTD., priority 2021, published 2024)
pIC50: −log10 of the molar value. Bridge positions count the residues as written; N and C are the ends. Square brackets hold non-standard residues; d marks the D form. Peptide text beside a SMILES is read from it. NMeF = CN[C@@H](Cc1ccccc1)C(=O)O; dOrn = NCCC[C@@H](N)C(=O)O

How the values were obtained:
NPFF1 receptor = biological target: T1, NPFF1 receptor (Homo sapiens, UniProt Q9GZQ6); experiment: cAMP functional experiment, NPFF1 receptor (forskolin-induced cAMP accumulation); type: cell-based
T1 construct: expressed in transfected cells; host or cells: HEK293
Description: The agonistic activity of the cyclopeptide molecule of the present invention against Mu-opioid receptor, Delta-opioid receptor, Kappa-opioid receptor, NPFF1 receptor and NPFF2 receptor was evaluated by detecting the regulation of the cyclopeptide molecule of the present invention on the intracellular accumulation of cyclic adenosine monophosphate (cAMP) induced by Forskolin in HEK293 cells stably expressing these five receptors. The experimental method was: the cells were seeded in 24 well plates with 120000 cells per well, and were cultured for more than 20 hours. At the beginning of the experiment, the culture medium in the culture dish was suck out, and then 500 μL of preheated serum-free medium containing 1 mM of IBMX was added, the mixture was incubated at 37° C. for 10 minutes. Then each 10 μL of the drug to be tested and 10 μM of forskolin (final concentration) were added to each well. The mixture was incubated at 37° C. for 30 minutes. After incubation, all the liquid was suck out from the culture dish, 500 μL of 0.2 N hydrochloric acid was added to each well, the mixture was incubated at room temperature for 30 minutes to promote cell lysis. After lysis was complete, NaOH was added to neutralize the hydrochloric acid solution used for lysis. Then all the liquid was suck out from the culture dish into centrifuge tubes, the liquid was centrifuged at 12000 rpm for 2 minutes. 50 μL was taken to a clean centrifuge tube, 100 μL of 60 μg/μL PKA was added, and 100 μL of TE cAMP buffer was added to the blank control group (B). Another 50 μL of 0.5 μ Ci[^3H]cAMP was added to each of the above centrifuge tubes, the mixture was quickly mixed and incubated at 4° C. for more than 2 hours. After incubation, another 100 μL of activated carbon suspension was added to each tube, the mixture was vortex agitated evenly, placed in an ice bath for 1 minute, centrifuged at 5000 rpm for 4 minutes. 200 μL of supernatant after centrifugation in each tube was suck out to a 24 well plate, with an additional 700 μL of scintillator liquid added per well, then the 24 well plate was sealed with adhesive film, placed for 3 hours, then placed on the scintillation instrument for measurement.
The inhibitory effect of cAMP was represented by the percentage (% control) of drug inhibition of intracellular cAMP accumulation induced by Forskolin, wherein % control=(cAMP content when treated with Forskolin−cAMP content when Forskolin co-treated with the test drug)/(cAMP content when treated with Forskolin−cAMP content when treated with solvent). The related % control data was represented by mean±S.E.M. The dose-effect relationship of the drug was statistically analyzed using a nonlinear regression model, and the IC50 values of the multi-target cyclopeptide molecule on inhibition of Forskolin induced intracellular cAMP accumulation were calculated using the statistical software GraphPad Prism version 5.0.

Kunming male mice [1] = experiment: Photothermal tail flick experiment, subcutaneous injection; type: in vivo; details: photothermal tail flick
Description: Two administration methods were used: peripheral subcutaneous administration and oral administration. Subsequently, the analgesic activity of the drug was studied using an acute pain model of photothermal tail flick in mice.
Subcutaneous administration on the back was chosen for subcutaneous administration (s.c.). A sterile 1 mL syringe was used and the drug with the volume of 0.1 mL/10 g was injected for administration. The back skin was grasped with the right hand, the needle was tilted in, and the drug was injected subcutaneously into the mouse's back. After the needle was inserted, shook it left and right, and observe to confirm that the needle had indeed entered the subcutaneous area to prevent the needle from puncturing the skin and leaking the drug.
The photothermal tail flick experiment is based on the experimental method summarized by D'Amour and Smith to optimize the experimental parameters. The experiment selected Kunming male mice with body weigh 21±2 g, and ambient temperature controlled at 22±2° C. The experimental mice were allowed to drink water freely and were moved from the breeding room to the experimental area for adaptation for 30 minutes before starting the experiment. Then the mice were grab with the right hand and the tail hang freely. Then the mice's tail were placed on a radiation light source, 2-3 mm away from the mice tail. The intensity of radiation heat was adjusted to the tail flick time of mice being 3-5 s, which is the basic pain threshold of photothermal tail flick. The irradiation time of the mice tail should not exceed 10 s to prevent scalding of the mice tail, which was the maximum latency for photothermal tail flick. After administration, time points of 10, 20, 30, 45, 60, 90, 120, 180, 240, 300, 360, and 420 minutes were selected to measure the tail flick latency of mice after administration.
The analgesic effect of drugs was generally evaluated using the maximum analgesic effect MPE (%), MPE (%)=100×[(pain threshold after administration−basic pain threshold)/(10 seconds−basic pain threshold)]. 50% effective dose (ED50) refers to the corresponding drug dose that causes a 50% effect. ED50 and 95% confidence interval were calculated using MPE (%) and the drug concentration that achieves the maximum analgesic effect MPE (%) by the statistical software GraphPad Prism 5.0. The difference in analgesic effects was statistically analyzed using one-way ANOVA (Dunnett test), *P<0.05, **P<0.01, and ***P<0.001 indicated significance of the difference between the group with only drug injected and the saline group.

[2] = Constipation side effect assay (gastrointestinal motility, activated carbon); type: in vivo, mice; details: male, Kunming, mouse, in vivo; oral injection, mice; read-out: ED50 of gastrointestinal inhibition
Description: (§1) 26±2 g Kunming male mice were selected. First, the mice were starved and placed in a box without padding. The mice were not allowed to eat, but could drink water freely. The mice were starved for 16 hours then weighted, and administered orally (p.o.). After 15 minutes of administration, pre-prepared activated carbon suspension (a physiological saline suspension containing 5% activated carbon and 10% arabic gum) was orally infused into the stomach at a volume of 0.1 mL/10 g. After 30 minutes of gavage, the mice were sacrificed through cervical dislocation. The mice were dissected immediately and the entire length of the small intestine was taken from the pylorus of the stomach to the cecum. Then the total length of the small intestine and the length of carbon powder movement were measured.
(§2) The experimental data of gastrointestinal motility was represented by a percentage of gastrointestinal motility, and the specific calculation method was represented by a percentage of the distance the carbon powder moved divided by the total length of the small intestine. The data was represented by the mean±S.E.M. of the percentage of gastrointestinal motility, and the differences between compounds and saline were analyzed using one-way ANOVA (Dunnett test). *P<0.05, **P<0.01, and ***P<0.001indicated significance of the difference between only saline injected and related compounds injected.

Kunming male mice [3] = experiment: as above; type: in vivo; details: oral; for side effect of constipation: effective dose range of analgesia
Description: as §1, §2

T1 sequence (Q9GZQ6 whole entry): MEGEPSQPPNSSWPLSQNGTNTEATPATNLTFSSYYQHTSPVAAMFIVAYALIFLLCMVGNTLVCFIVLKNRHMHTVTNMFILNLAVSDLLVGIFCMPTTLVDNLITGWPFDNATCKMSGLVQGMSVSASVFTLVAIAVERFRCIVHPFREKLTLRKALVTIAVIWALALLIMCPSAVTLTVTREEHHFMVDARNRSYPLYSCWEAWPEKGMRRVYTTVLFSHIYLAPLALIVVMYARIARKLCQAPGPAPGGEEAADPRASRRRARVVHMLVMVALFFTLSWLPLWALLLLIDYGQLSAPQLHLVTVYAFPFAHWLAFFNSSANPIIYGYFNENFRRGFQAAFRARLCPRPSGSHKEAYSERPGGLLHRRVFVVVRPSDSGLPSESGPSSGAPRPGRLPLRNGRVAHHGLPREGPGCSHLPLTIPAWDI

SMILES | pIC50 (NPFF1 receptor) | ED50 value (95% confidence interval), analgesic activity (Kunming male mice [1]) | ED50 at 45 min [2] [mg/kg] | ED50 of gastrointestinal inhibition relative to analgesic ED50 (Kunming male mice [3]) [times] | side effect of constipation (Kunming male mice [3])
CN1C(=O)CNC(=O)[C@H](NC(=O)[C@@H](N)Cc2ccc(O)cc2)CCCCNC(=O)C[C@@H](C(=O)N2CCC[C@H]2C(=O)N[C@@H](CCC(N)=O)C(=O)N[C@@H](CCCNC(=N)N)C(=O)N[C@@H](Cc2ccccc2)C(N)=O)NC(=O)[C@@H]1Cc1ccccc1 [Compound 1, Tyr-c[D-Lys-Gly-NMe-Phe-Asp]-Pro-Gln-Arg-Phe-NH2] (H-Y[dK]G[NMeF]DPQRF-NH2; lactam 2-5) | 6.98 | 0.32 (0.27 to 0.38) μg/kg | 37.1 | 27044 | no side effect of constipation within the effective dose range of analgesia
CN1C(=O)CNC(=O)[C@H](NC(=O)[C@@H](N)Cc2ccc(O)cc2)CCCNC(=O)CC[C@@H](C(=O)N2CCC[C@H]2C(=O)N[C@@H](CCC(N)=O)C(=O)N[C@@H](CCCNC(=N)N)C(=O)N[C@@H](Cc2ccccc2)C(N)=O)NC(=O)[C@@H]1Cc1ccccc1 [Compound 11, Tyr-c^[2,5][D-Orn-Gly-NMe-Phe-Glu]-Pro-Gln-Arg-Phe-NH2] (H-Y[dOrn]G[NMeF]EPQRF-NH2; lactam 2-5) | 7.37 | – | 1.24 | 8850 | no side effect of constipation within the effective dose range of analgesia
